Measured values published in ChEMBL document CHEMBL3616426 (Eur J Med Chem, 2015).
Calls of active or inactive are those of the source. The rule behind the calls is not given here.

How the values were obtained:
Rattus norvegicus [1] = assay: Antiosteoporotic activity in ovariectomized Sprague-Dawley rat assessed as bone volume /tissue volume at 1 ug/kg, po qd at 6th week by micro-CT analysis (reference value: 41.33 +/- 5.04%); assay type: functional
Rattus norvegicus [2] = assay: Antiosteoporotic activity in ovariectomized Sprague-Dawley rat assessed as trabecular separation at 10 ug/kg, po qd at 6th week by micro-CT analysis (reference value: 0.116 +/- 0.010 millimeter); assay type: functional, Trabecula
Rattus norvegicus [3] = assay: Antiosteoporotic activity in ovariectomized Sprague-Dawley rat assessed as trabecular separation at 10 ug/kg, po qd at 12th week by micro-CT analysis (reference value: 0.146 +/- 0.010 millimeter); assay type: functional, Trabecula
Rattus norvegicus [4] = assay: Antiosteoporotic activity in ovariectomized Sprague-Dawley rat assessed as serum osteocalcin level at 3 ug/kg, po qd at 18th week by enzyme immunoassay (reference value: 1118.9 +/- 37.77 ng/ml); assay type: functional
Rattus norvegicus [5] = assay: Antiosteoporotic activity in ovariectomized Sprague-Dawley rat assessed as bone volume /tissue volume at 10 ug/kg, po qd at 12th week by micro-CT analysis (reference value: 31.61 +/- 2.39%); assay type: functional
Rattus norvegicus [6] = assay: Antiosteoporotic activity in ovariectomized Sprague-Dawley rat assessed as bone volume /tissue volume at 1 ug/kg, po qd at 12th week by micro-CT analysis (reference value: 31.61 +/- 2.39%); assay type: functional
Rattus norvegicus [7] = assay: Antiosteoporotic activity in ovariectomized Sprague-Dawley rat assessed as serum osteocalcin level at 10 ug/kg, po qd at 18th week by enzyme immunoassay (reference value: 1118.9 +/- 37.77 ng/ml); assay type: functional
Rattus norvegicus [8] = assay: Antiosteoporotic activity in ovariectomized Sprague-Dawley rat assessed as trabecular separation at 1 ug/kg, po qd at 12th week by micro-CT analysis (reference value: 0.146 +/- 0.010 millimeter); assay type: functional, Trabecula
[9] = target: T1, Estrogen receptor (Homo sapiens) (UniProt P03372); assay: Antagonist activity at ERalpha (301 to 553 amino acid residues) (unknown origin) assessed as inhibition of E2 induced interaction with SRC1 after 24 hrs by yeast-two-hybrid assay; set-up: concentration or dose not given beside the values
T1 sequence (whole entry): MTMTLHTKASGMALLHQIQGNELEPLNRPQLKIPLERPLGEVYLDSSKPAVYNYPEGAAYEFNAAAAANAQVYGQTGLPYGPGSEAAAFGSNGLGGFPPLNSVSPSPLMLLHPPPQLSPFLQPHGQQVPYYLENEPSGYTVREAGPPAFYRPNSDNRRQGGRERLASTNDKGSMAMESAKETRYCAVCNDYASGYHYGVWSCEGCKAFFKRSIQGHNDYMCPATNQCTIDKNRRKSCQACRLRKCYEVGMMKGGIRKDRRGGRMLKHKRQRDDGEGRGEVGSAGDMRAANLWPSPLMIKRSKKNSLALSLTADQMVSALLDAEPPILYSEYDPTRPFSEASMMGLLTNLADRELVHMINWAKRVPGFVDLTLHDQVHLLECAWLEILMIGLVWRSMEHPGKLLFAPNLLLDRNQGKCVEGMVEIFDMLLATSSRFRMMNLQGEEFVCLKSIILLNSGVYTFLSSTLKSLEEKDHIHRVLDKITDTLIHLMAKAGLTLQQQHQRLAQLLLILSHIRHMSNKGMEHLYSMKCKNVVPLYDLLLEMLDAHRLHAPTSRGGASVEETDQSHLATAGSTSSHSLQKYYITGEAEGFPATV

Rattus norvegicus [10] = assay: Antiosteoporotic activity in ovariectomized Sprague-Dawley rat assessed as trabecular thickness at 10 ug/kg, po qd at 6th week by micro-CT analysis (reference value: 0.086 +/- 0.0069 millimeter); assay type: functional, Trabecula
Rattus norvegicus [11] = assay: Antiosteoporotic activity in ovariectomized Sprague-Dawley rat assessed as trabecular separation recovery at 10 ug/kg, po qd measured at 18th week by micro-CT analysis relative to SHAM control; assay type: functional, organism-based; conditions: Trabecula
Rattus norvegicus [12] = assay: Antiosteoporotic activity in ovariectomized Sprague-Dawley rat assessed as bone volume /tissue volume at 3 ug/kg, po qd at 6th week by micro-CT analysis (reference value: 41.33 +/- 5.04%); assay type: functional
Rattus norvegicus [13] = assay: Antiosteoporotic activity in ovariectomized Sprague-Dawley rat assessed as decrease in serum osteocalcin level at 10 ug/kg, po qd at 18th week by enzyme immunoassay relative to SHAM control; assay type: functional, organism-based

O=C1c2cc(O)cc(O)c2[C@@H](c2ccc(O)cc2)[C@@H]1c1cc(O)cc(O)c1 [ISOPAUCIFLORAL F]
Activity (Rattus norvegicus [1]): 40.38%
Activity (Rattus norvegicus [2]): 0.118 mm
Activity (Rattus norvegicus [3]): 0.138 mm
Activity (Rattus norvegicus [4]): 713.24 ng/mL
Activity (Rattus norvegicus [5]): 38.43%
Activity (Rattus norvegicus [6]): 31.46%
Activity (Rattus norvegicus [7]): 702.2 ng/mL
Activity (Rattus norvegicus [8]): 0.18 mm
Activity [9]: 9.45%
Activity (Rattus norvegicus [10]): 0.082 mm
Activity (Rattus norvegicus [11]): inactive
Activity (Rattus norvegicus [12]): 52.56%
Activity (Rattus norvegicus [13]): Active
